Laboratory results reported in ChEMBL document CHEMBL5120794, “Development of 5-hydroxyl-1-azabenzanthrone derivatives as dual binding site and selective acetylcholinesterase inhibitors” (Eur J Med Chem, 2022).
Activity calls are given as the source filed them. The rule behind the calls is not given here.

Tests used:
[1] = test system: PC-12; assay: Cytoprotective activity against H2O2-induced oxidative damage in rat PC-12 cells assessed as cell viability at 1 uM preincubated for 4 hrs followed by H2O2 treatment for another 24 hrs by MTT assay; assay type: functional, cell-based; conditions: time 28.0 hrs
[2] = molecular target: Cholinesterase (Equus caballus, UniProt P81908)
Description: Inhibition of equine serum BchE using S-butyryl thiocholine iodide as substrate incubated for 10 mins followed by substrate addition measured at 0 to 180 secs by Ellman's method

[3] = molecular target: Amyloid-beta precursor protein (Homo sapiens) (UniProt P05067); assay: Inhibition of amyloid beta (1 to 42) (unknown origin) self-induced aggregation at 25 uM measured after 46 to 48 hrs by Thioflavin binding assay relative to control; conditions: time 46-48 hrs
[4] = molecular target: Acetylcholinesterase (Electrophorus electricus, UniProt O42275); assay: Inhibition of Electrophorus electricus AchE using […] as substrate incubated for 10 mins followed by substrate addition measured at 0 to 180 secs by Ellman's method
[5] = Clearance in Sprague-Dawley rat plasma at 2 mg/kg, iv measured at 10 to 1440 mins by LC-MS/MS analysis; assay type: ADME, organism-based; conditions: time 10-1440 min
[6] = Toxicity in sopolamine-induced cognitive impairment ICR mouse model assessed as morphological change in liver at 10 mg/kg, ip administered for 14 consecutive days followed by scopolmaine-stimulation measured on day 21 by H and E staining method; assay type: organism-based; conditions: in vivo, 504 h, time 21 day
[7] = test system: PC-12; assay: Induction of apoptosis in rat PC-12 cells assessed as viable cells at 0.5 uM preincubated for 4 hrs followed by H2O2 treatment for another 24 hrs by Annexin V and PI double staining based flow cytometric analysis (RVB = 87.1 %); assay type: functional; conditions: time 28 hrs, read-out: Activity
[8] = test system: PC-12; assay: Induction of apoptosis in rat PC-12 cells assessed as late apoptotic cells at 0.3 uM preincubated for 4 hrs followed by H2O2 treatment for another 24 hrs by Annexin V and PI double staining based flow cytometric analysis (RVB = 5.46 %); assay type: functional; conditions: time 28 hrs
[9] = Toxicity in sopolamine-induced cognitive impairment ICR mouse model assessed as diarrhea at 10 mg/kg, ip administered for 14 consecutive days followed by scopolmaine-stimulation measured on day 21; assay type: organism-based; conditions: in vivo, 504 h, time 21 day
[10] = test system: PC-12; assay: Induction of apoptosis in rat PC-12 cells assessed as early apoptotic cells at 0.3 uM preincubated for 4 hrs followed by H2O2 treatment for another 24 hrs by Annexin V and PI double staining based flow cytometric analysis (RVB = 4.52 %); assay type: functional; conditions: time 28 hrs
[11] = Half life in Sprague-Dawley rat plasma at 2 mg/kg, iv measured at 10 to 1440 mins by LC-MS/MS analysis; assay type: ADME, organism-based; conditions: time 10-1440 min
[12] = MRT infinity in Sprague-Dawley rat plasma at 10 mg/kg, IG measured at 10 to 1440 mins by LC-MS/MS analysis; assay type: ADME, organism-based; conditions: po, time 10-1440 min
[13] = AUC (0 to 24 hrs) in Sprague-Dawley rat plasma at 10 mg/kg, IG measured at 10 to 1440 mins by LC-MS/MS analysis; assay type: ADME, organism-based; design: dose 10 mg/kg, time 10-1440 min, route ig; conditions: po
[14] = test system: PC-12; assay: Induction of apoptosis in rat PC-12 cells assessed as late apoptotic cells at 0.1 uM preincubated for 4 hrs followed by H2O2 treatment for another 24 hrs by Annexin V and PI double staining based flow cytometric analysis (RVB = 5.46 %); assay type: functional; conditions: time 28 hrs
[15] = Toxicity in sopolamine-induced cognitive impairment ICR mouse model assessed as morphological change in spleen at 10 mg/kg, ip administered for 14 consecutive days followed by scopolmaine-stimulation measured on day 21 by H and E staining method; assay type: organism-based; conditions: in vivo, 504 h, time 21 day
[16] = MRT infinity in Sprague-Dawley rat plasma at 2 mg/kg, iv measured at 10 to 1440 mins by LC-MS/MS analysis; assay type: ADME, organism-based; conditions: time 10-1440 min
[17] = AUC (0 to infinity) in Sprague-Dawley rat plasma at 2 mg/kg, iv measured at 10 to 1440 mins by LC-MS/MS analysis; assay type: ADME, organism-based; design: time lower 10 min, dose 2 mg/kg, time upper 1440 min, route iv
[18] = test system: PC-12; assay: Inhibition of ROS production in rat PC-12 cells assessed as intracellular ROS level at 0.1 to 0.5 uM preincubated for 4 hrs followed by H2O2 treatment for another 24 hrs by flow cytometric analysis (RVB = 1.58); assay type: functional; conditions: dose 0.1-0.5 µM; time 28 hrs
[19] = Toxicity in sopolamine-induced cognitive impairment ICR mouse model assessed as swimming motility impairment at 10 mg/kg, ip administered for 14 consecutive days followed by scopolmaine-stimulation measured on day 21; assay type: organism-based; conditions: in vivo, 504 h, time 21 day
[20] = Bioavailability in Sprague-Dawley rat plasma at 10 mg/kg, IG measured at 10 to 1440 mins by LC-MS/MS analysis; assay type: ADME, organism-based; conditions: po, time 10-1440 min
[21] = test system: PC-12; assay: Induction of apoptosis in rat PC-12 cells assessed as late apoptotic cells at 0.5 uM preincubated for 4 hrs followed by H2O2 treatment for another 24 hrs by Annexin V and PI double staining based flow cytometric analysis (RVB = 5.46 %); assay type: functional; conditions: time 28 hrs
[22] = AUC (0 to 24 hrs) in Sprague-Dawley rat plasma at 2 mg/kg, iv measured at 10 to 1440 mins by LC-MS/MS analysis; assay type: ADME, organism-based; design: time lower 10 min, dose 2 mg/kg, time upper 1440 min, route iv
[23] = Tmax in Sprague-Dawley rat plasma at 10 mg/kg, IG measured at 10 to 1440 mins by LC-MS/MS analysis; assay type: ADME, organism-based; conditions: po, time 10-1440 min
[24] = Toxicity in sopolamine-induced cognitive impairment ICR mouse model assessed as morphological change in renal at 10 mg/kg, ip administered for 14 consecutive days followed by scopolmaine-stimulation measured on day 21 by H and E staining method; assay type: organism-based; conditions: in vivo, 504 h, time 21 day
[25] = test system: PC-12; assay: Antioxidant activity in H2O2-induced oxidative stress in rat PC-12 cells assessed as increase in expression of Nrf2 level preincubated for 4 hrs followed by H2O2 treatment for another 24 hrs by Western blotting analysis; assay type: functional, cell-based; conditions: dose 0.5-3 µM, time 28.0 hrs, DDE = dose-dependent effect
[26] = test system: PC-12; assay: Induction of apoptosis in rat PC-12 cells assessed as viable cells at 0.1 uM preincubated for 4 hrs followed by H2O2 treatment for another 24 hrs by Annexin V and PI double staining based flow cytometric analysis (RVB = 87.1 %); assay type: functional; conditions: time 28 hrs, read-out: Activity
[27] = Half life in Sprague-Dawley rat plasma at 10 mg/kg, IG measured at 10 to 1440 mins by LC-MS/MS analysis; assay type: ADME, organism-based; conditions: po, time 10-1440 min
[28] = in vitro; conditions: PAMPA
[29] = Toxicity in sopolamine-induced cognitive impairment ICR mouse model assessed as emesis at 10 mg/kg, ip administered for 14 consecutive days followed by scopolmaine-stimulation measured on day 21; assay type: organism-based; conditions: in vivo, 504 h, time 21 day
[30] = Cmax in Sprague-Dawley rat plasma at 10 mg/kg, IG measured at 10 to 1440 mins by LC-MS/MS analysis; assay type: ADME, organism-based; design: dose 10 mg/kg, time 10-1440 min, route ig; conditions: po
[31] = test system: PC-12; assay: Antioxidant activity in H2O2-induced oxidative stress in rat PC-12 cells assessed as increase in expression of HO-1 level preincubated for 4 hrs followed by H2O2 treatment for another 24 hrs by Western blotting analysis; assay type: functional, cell-based; conditions: dose 0.5-3 µM, time 28.0 hrs, DDE = dose-dependent effect
[32] = AUC (0 to infinity) in Sprague-Dawley rat plasma at 10 mg/kg, IG measured at 10 to 1440 mins by LC-MS/MS analysis; assay type: ADME, organism-based; design: time lower 10 min, dose 10 mg/kg, time upper 1440 min, route ig; conditions: po
[33] = test system: PC-12; assay: Cytoprotective activity against H2O2-induced oxidative damage in rat PC-12 cells assessed as cell viability at 1 to 3 uM preincubated for 4 hrs followed by H2O2 treatment for another 24 hrs by MTT assay; assay type: functional, cell-based; conditions: dose 1-3 µM, time 28.0 hrs
[34] = test system: PC-12; assay: Induction of apoptosis in rat PC-12 cells assessed as viable cells at 0.3 uM preincubated for 4 hrs followed by H2O2 treatment for another 24 hrs by Annexin V and PI double staining based flow cytometric analysis (RVB = 87.1 %); assay type: functional; conditions: time 28 hrs, read-out: Activity
[35] = Tmax in Sprague-Dawley rat plasma at 2 mg/kg, iv measured at 10 to 1440 mins by LC-MS/MS analysis; assay type: ADME, organism-based; conditions: time 10-1440 min
[36] = test system: PC-12; assay: Induction of apoptosis in rat PC-12 cells assessed as necrotic cells at 0.3 uM preincubated for 4 hrs followed by H2O2 treatment for another 24 hrs by Annexin V and PI double staining based flow cytometric analysis (RVB = 2.94 %); assay type: functional; conditions: time 28 hrs
[37] = test system: Mus musculus; assay: Antialzheimer activity in scopolamine-induced cognitive impairment ICR mouse model assessed as improvement of exploration ability at 2.5 to 10 mg/kg, ip administered for 14 consecutive days followed by scopolmaine-stimulation measured on day 21 by Y maze test; assay type: functional; conditions: dose 2.5-10 mg/kg, time 21 day
[38] = test system: PC-12; assay: Induction of apoptosis in rat PC-12 cells assessed as early apoptotic cells at 0.5 uM preincubated for 4 hrs followed by H2O2 treatment for another 24 hrs by Annexin V and PI double staining based flow cytometric analysis (RVB = 4.52 %); assay type: functional; conditions: time 28 hrs
[39] = Toxicity in sopolamine-induced cognitive impairment ICR mouse model assessed as morphological change in lung at 10 mg/kg, ip administered for 14 consecutive days followed by scopolmaine-stimulation measured on day 21 by H and E staining method; assay type: organism-based; conditions: in vivo, 504 h, time 21 day
[40] = test system: PC-12; assay: Induction of apoptosis in rat PC-12 cells assessed as early apoptotic cells at 0.1 uM preincubated for 4 hrs followed by H2O2 treatment for another 24 hrs by Annexin V and PI double staining based flow cytometric analysis (RVB = 4.52 %); assay type: functional; conditions: time 28 hrs
[41] = test system: Mus musculus; assay: Antialzheimer activity in ICR mouse assessed as reduction in scopolamine-induced cognitive impairment at 2.5 to 10 mg/kg, ip administered for 14 consecutive days followed by scopolmaine-stimulation measured on day 21 by Morris water maze test; assay type: functional, organism-based; conditions: dose 2.5-10 mg/kg, time 21.0 day, DDE = dose-dependent effect
[42] = Clearance in Sprague-Dawley rat plasma at 10 mg/kg, IG measured at 10 to 1440 mins by LC-MS/MS analysis; assay type: ADME, organism-based; conditions: po, time 10-1440 min
[43] = test system: PC-12; assay: Induction of apoptosis in rat PC-12 cells assessed as necrotic cells at 0.5 uM preincubated for 4 hrs followed by H2O2 treatment for another 24 hrs by Annexin V and PI double staining based flow cytometric analysis (RVB = 2.94 %); assay type: functional; conditions: time 28 hrs
[44] = Cmax in Sprague-Dawley rat plasma at 2 mg/kg, iv measured at 10 to 1440 mins by LC-MS/MS analysis; assay type: ADME, organism-based; design: time lower 10 min, dose 2 mg/kg, time upper 1440 min, route iv
[45] = Toxicity in sopolamine-induced cognitive impairment ICR mouse model assessed as morphological change in heart at 10 mg/kg, ip administered for 14 consecutive days followed by scopolmaine-stimulation measured on day 21 by H and E staining method; assay type: organism-based; conditions: in vivo, 504 h, time 21 day
[46] = test system: PC-12; assay: Induction of apoptosis in rat PC-12 cells assessed as necrotic cells at 0.1 uM preincubated for 4 hrs followed by H2O2 treatment for another 24 hrs by Annexin V and PI double staining based flow cytometric analysis (RVB = 2.94 %); assay type: functional; conditions: time 28 hrs

Chain of Amyloid-beta precursor protein (Homo sapiens) (P05067 whole entry): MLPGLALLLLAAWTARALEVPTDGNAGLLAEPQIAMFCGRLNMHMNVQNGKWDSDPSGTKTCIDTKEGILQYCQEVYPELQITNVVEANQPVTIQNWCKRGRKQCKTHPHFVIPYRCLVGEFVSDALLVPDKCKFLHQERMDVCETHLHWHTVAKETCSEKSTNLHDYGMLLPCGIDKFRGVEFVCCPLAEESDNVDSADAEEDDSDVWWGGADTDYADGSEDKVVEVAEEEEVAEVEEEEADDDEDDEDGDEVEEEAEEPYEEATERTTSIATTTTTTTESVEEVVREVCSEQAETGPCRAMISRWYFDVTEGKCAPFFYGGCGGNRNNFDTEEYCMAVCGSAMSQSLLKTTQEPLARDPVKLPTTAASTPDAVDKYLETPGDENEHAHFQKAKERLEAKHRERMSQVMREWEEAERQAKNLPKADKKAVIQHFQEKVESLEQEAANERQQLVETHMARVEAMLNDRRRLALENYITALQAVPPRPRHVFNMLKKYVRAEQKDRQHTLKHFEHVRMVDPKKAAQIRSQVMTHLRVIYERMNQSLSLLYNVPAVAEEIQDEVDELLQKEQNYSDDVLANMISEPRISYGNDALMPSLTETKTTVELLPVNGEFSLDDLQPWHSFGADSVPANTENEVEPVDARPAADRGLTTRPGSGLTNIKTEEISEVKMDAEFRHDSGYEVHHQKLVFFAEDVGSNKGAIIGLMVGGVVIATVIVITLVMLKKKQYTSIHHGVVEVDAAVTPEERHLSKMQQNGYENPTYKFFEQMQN
Chain of Cholinesterase (P81908 whole entry): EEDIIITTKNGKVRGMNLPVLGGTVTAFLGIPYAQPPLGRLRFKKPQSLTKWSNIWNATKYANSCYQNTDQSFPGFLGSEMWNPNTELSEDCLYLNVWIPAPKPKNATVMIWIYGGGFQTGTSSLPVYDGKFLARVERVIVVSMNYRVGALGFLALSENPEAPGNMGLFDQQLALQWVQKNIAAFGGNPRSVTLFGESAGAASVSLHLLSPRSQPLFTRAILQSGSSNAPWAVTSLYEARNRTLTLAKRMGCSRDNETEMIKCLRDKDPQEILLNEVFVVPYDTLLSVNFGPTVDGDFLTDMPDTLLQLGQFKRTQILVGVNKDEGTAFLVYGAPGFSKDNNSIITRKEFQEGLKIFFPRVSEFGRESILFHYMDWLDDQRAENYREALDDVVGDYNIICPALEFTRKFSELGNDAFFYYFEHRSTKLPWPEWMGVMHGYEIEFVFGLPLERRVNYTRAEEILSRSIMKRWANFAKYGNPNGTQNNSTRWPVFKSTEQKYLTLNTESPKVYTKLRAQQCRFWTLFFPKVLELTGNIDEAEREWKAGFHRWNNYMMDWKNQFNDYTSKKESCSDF
Chain of Acetylcholinesterase (O42275 whole entry): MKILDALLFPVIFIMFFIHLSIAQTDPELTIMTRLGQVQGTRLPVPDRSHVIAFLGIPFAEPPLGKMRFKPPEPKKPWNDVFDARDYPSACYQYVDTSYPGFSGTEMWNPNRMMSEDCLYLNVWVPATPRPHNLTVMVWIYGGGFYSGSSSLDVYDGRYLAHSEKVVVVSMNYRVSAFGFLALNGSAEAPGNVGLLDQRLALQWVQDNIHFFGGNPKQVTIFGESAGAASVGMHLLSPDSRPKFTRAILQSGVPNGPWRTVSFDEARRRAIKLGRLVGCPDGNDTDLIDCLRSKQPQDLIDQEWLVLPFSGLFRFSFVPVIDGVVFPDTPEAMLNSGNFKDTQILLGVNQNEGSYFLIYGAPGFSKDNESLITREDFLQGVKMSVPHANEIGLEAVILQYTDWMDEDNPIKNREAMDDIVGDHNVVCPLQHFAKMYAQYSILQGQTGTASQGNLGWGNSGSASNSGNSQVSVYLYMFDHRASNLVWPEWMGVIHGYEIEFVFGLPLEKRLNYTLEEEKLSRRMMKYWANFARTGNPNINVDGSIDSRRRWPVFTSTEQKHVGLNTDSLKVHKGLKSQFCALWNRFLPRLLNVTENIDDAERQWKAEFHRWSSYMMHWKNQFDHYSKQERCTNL

O=C1c2ccccc2-c2nccc3cc(OCCN4CCN(CCO)CC4)cc1c23
Activity [1]: Active
IC50 [2]: > 100000 nM
inhibition [3]: 14.9%
IC50 [4]: 420 nM

O=C1c2ccccc2-c2nccc3cc(OCCCCN4CCN(CCO)CC4)cc1c23
Activity [1]: Active
IC50 [2]: > 100000 nM
inhibition [3]: 26.1%
IC50 [4]: 920 nM

O=C1c2ccccc2-c2nccc3cc(OCCCN4CCN(CCO)CC4)cc1c23
Activity [1]: Active
IC50 [2]: > 100000 nM
inhibition [3]: 9.7%
IC50 [4]: 190 nM

CC1CCCCN1CCCOc1cc2c3c(nccc3c1)-c1ccccc1C2=O (stereo not drawn)
clearance [5]: 116 mL/min/kg
Activity [1]: Active
Activity [6]: Non-Toxic
viability at 0.5 µM [7]: 88.5%
Activity [8]: 6.09%
Activity [9]: Non-Toxic
IC50 [2]: 19700 nM
Activity [10]: 3.99%
half-life [11]: 3.73 h
MRT inf [12]: 6.48 h
AUC(0-t) [13]: 704 ng·h/mL
Activity [14]: 8.98%
Activity [15]: Non-Toxic
MRT inf [16]: 2.79 h
AUC(0-inf) [17]: 288 ng·h/mL
Activity [18]: 1.1
Activity [19]: Non-Toxic
bioavailability [20]: 55.5%
Activity [21]: 4.81%
AUC(0-t) [22]: 254 ng·h/mL
Tmax [23]: 3.33 h
Activity [24]: Non-Toxic
inhibition [3]: 35.3%
Activity [25]: Dde
viability at 0.1 µM [26]: 79.7%
half-life [27]: 6.47 h
Papp [28]: 16.6 ×10⁻⁶ cm/s
Activity [29]: Non-Toxic
IC50 [4]: 45 nM
Cmax [30]: 68.5 ng/mL
Activity [31]: Dde
AUC(0-inf) [32]: 841 ng·h/mL
Activity [33]: Active
viability at 0.3 µM [34]: 86.9%
Tmax [35]: 4.98 min
Activity [36]: 2.99%
Activity [37]: 45.98%
Activity [38]: 3.71%
Activity [39]: Non-Toxic
Activity [40]: 6.76%
Activity [41]: Dde
CL/F [42]: 208 mL/min/kg
Activity [43]: 2.96%
Cmax [44]: 103 ng/mL
Activity [45]: Non-Toxic
Activity [46]: 4.58%
